Target: thrombin (Homo sapiens, UniProt P00734)
Test: Ki determinations thrombin, fluorogenic substrate Tosyl-GPR-AMC
Type: biochemical
Conditions: 20° C., thrombin 100 pM, Tosyl-GPR-AMC 20 μM, HBS pH 7.4; Ki class
Experimental: The Ki determinations were carried out at 20° C. with the fluorogenic substrate Tosyl-GPR-AMC (Bachem, Heidelberg, Germany; λexc=370 nm, λem=450 nm) at a thrombin concentration of 100 pM in HBS pH 7.4. The substrate was added to a final concentration of 20 μM in a total assay volume of 100 μl. The enzymatic reaction was started by addition of substrate. The emission at 450 nm was monitored in 1 minute intervals for 10 minutes using a polarstar reader (BMG Laboratories, Offenburg, Germany). Initial velocities of the control and the inhibited reactions (vo and vi) were estimated in FU/min at different compound concentrations. The inhibition constants were calculated using the Michaelis-Menten equation for competitive inhibition.

Row | Compound | Ki [µM]
1 | Cc1nc(N)ccc1CNCCn1c(Cl)cnc(NCC(F)(F)c2ccccn2)c1=O [Example 52] | 0.03 to 0.2
2 | Cc1cnc(NCC(F)(F)C2CCCCN2)c(=O)n1CCNCc1n[nH]c2ccc(Cl)cc12 (single isomer, unassigned) [85 (E1)] | < 0.005
3 | Cc1cnc(NCCC2CCCCN2C)c(=O)n1CCNCc1n[nH]c2ccc(Cl)cc12 (single isomer, unassigned) [95 (E2), 1-{2-[(5-Chloro-1H-indazol-3-ylmethyl)-amino]-ethyl}-6-methyl-3-[2-(1-methyl-piperidin-2-yl)-ethylamino]-1H-pyrazin-2-one] | < 0.005
4 | Cc1cnc(NCCC2CCCCN2C)c(=O)n1CCNCc1n[nH]c2ccc(Cl)cc12 (single isomer, unassigned) [95 (E1), 1-{2-[(5-Chloro-1H-indazol-3-ylmethyl)-amino]-ethyl}-6-methyl-3-[2-(1-methyl-piperidin-2-yl)-ethylamino]-1H-pyrazin-2-one] | < 0.005
5 | Cc1cnc(NCCNc2ccccn2)c(=O)n1CCNCc1cccc(Cl)c1 [Example 56] | 0.03 to 0.2
6 | O=c1c(NCCC2CCCCN2)ncc(Cl)n1CCNCc1n[nH]c2ccc(Cl)cc12 (single isomer, unassigned) [101 (E2), 6-Chloro-1-{2-[(5-chloro-1H-indazol-3-ylmethyl)-amino]-ethyl}-3-(2-piperidin-2-yl-ethylamino)-1H-pyrazin-2-one] | < 0.005

Further lines, results first:

Row | Ki [µM] | Compound
7 | < 0.005 | O=c1c(NCC(F)(F)c2ccccn2)ncc(Cl)n1CCNCc1n[nH]c2ccc(Cl)cc12 [Example 74]
8 | 0.03 to 0.2 | Cc1cnc(NC(Cc2ccccc2)C(N)=O)c(=O)n1CCNCCc1cccc(Cl)c1 (stereo not shown) [Example 59]
9 | < 0.005 | O=c1c(NCC(F)(F)c2cccc[n+]2[O-])ncc(Cl)n1CCNCc1n[nH]c2ccc(Cl)cc12 [Example 82]
10 | 0.005 to 0.03 | Cc1cnc(NCCC2CCCCN2)c(=O)n1CCNCc1cccc(Cl)c1 (stereo not shown) [Example 102]
11 | 0.005 to 0.03 | Cc1nc(N)ccc1CNCCn1c(Cl)cnc(NCC(F)(F)c2cccc[n+]2[O-])c1=O [Example 84]
12 | 0.03 to 0.2 | Cc1cnc(NCCc2ccccn2)c(=O)n1CCNCCc1nc2ccc(Cl)cc2[nH]1 [Example 99]
13 | < 0.005 | O=c1c(NCC(F)(F)c2cccc[n+]2[O-])ncc(Cl)n1CCNCCc1cccc(Cl)c1 [Example 83]
14 | 0.005 to 0.03 | NC(=O)CN1CCCCC1CCNc1ncc(Cl)n(CCNCc2n[nH]c3ccc(Cl)cc23)c1=O (stereo not shown) [Example 96, 2-{2-[2-(5-Chloro-4-{2-[(5-chloro-1H-indazol-3-ylmethyl)amino]-ethyl}-3-oxo-3,4-dihydro-pyrazin-2-ylamino)-ethyl]-piperidin-1-yl}-acetamide]
15 | < 0.005 | O=C(O)CN1CCCCC1CCNc1ncc(Cl)n(CCNCc2n[nH]c3ccc(Cl)cc23)c1=O (stereo not shown) [Example 97, {2-[2-(5-Chloro-4-{2-[(5-chloro-1H-indazol-3-ylmethyl)-amino]-ethyl}-3-oxo-3,4-dihydro-pyrazin-2-ylamino)-ethyl]-piperidin-1-yl}acetic acid]
16 | < 0.005 | O=c1c(NCCc2ccccn2)ncc(Cl)n1CCNCc1n[nH]c2ccc(Cl)cc12 [Example 92]

Reference: patent US20070099927A1, “Aminoalkyl-pyrazinones and-pyridones as thrombin inhibitors” (priority 2003, published 2007)
